Source: patent US10681909B2, “Herbicidal triazoles” (FMC Corporation, priority 2014, dated 2020)

What was measured:
barnyardgrass [1] = experiment: Test A preemergence; assay type: in vivo, Echinochloa crus-galli; settings: 0 to 100 scale (0 no effect, 100 complete control)
Text: (§1) Seeds of plant species selected from barnyardgrass (Echinochloa crus-galli), crabgrass, large (large crabgrass, Digitaria sanguinalis), kochia (Kochia scoparia), ragweed (common ragweed, Ambrosia elatior), foxtail, giant (giant foxtail, Setaria faberii), morningglory (Ipomoea spp.), pigweed (Amaranthus retroflexus), velvetleaf (Abutilon theophrasti), ryegrass, Italian (Italian ryegrass, Lolium multiflorum), wheat (Triticum aestivum), and corn (Zea mays) were planted into a blend of loam soil and sand and treated preemergence with a directed soil spray using test chemicals formulated in a non-phytotoxic solvent mixture which included a surfactant. At the same time, plants selected from these crop and weed species and also blackgrass (Alopecurus myosuroides), and galium (catchweed bedstraw, Galium aparine), were planted in pots containing the same blend of loam soil and sand and treated with postemergence applications of test chemicals formulated in the same manner. Plants ranged in height from 2 to 10 cm and were in the one- to two-leaf stage for the postemergence treatment. […] A dash (-) response means no test result.

kochia [2] = experiment: Test A preemergence; assay type: in vivo, Kochia scoparia; settings: 0 to 100 scale (0 no effect, 100 complete control)
Text: (§2) Seeds of plant species selected from barnyardgrass (Echinochloa crus-galli), crabgrass, large (large crabgrass, Digitaria sanguinalis), kochia (Kochia scoparia), ragweed (common ragweed, Ambrosia elatior), foxtail, giant (giant foxtail, Setaria faberii), morningglory (Ipomoea spp.), pigweed (Amaranthus retroflexus), velvetleaf (Abutilon theophrasti), ryegrass, Italian (Italian ryegrass, Lolium multiflorum), wheat (Triticum aestivum), and corn (Zea mays) were planted into a blend of loam soil and sand and treated preemergence with a directed soil spray using test chemicals formulated in a non-phytotoxic solvent mixture which included a surfactant.
(§3) At the same time, plants selected from these crop and weed species and also blackgrass (Alopecurus myosuroides), and galium (catchweed bedstraw, Galium aparine), were planted in pots containing the same blend of loam soil and sand and treated with postemergence applications of test chemicals formulated in the same manner. Plants ranged in height from 2 to 10 cm and were in the one- to two-leaf stage for the postemergence treatment. Treated plants and untreated controls were maintained in a greenhouse for approximately 10 d, after which time all treated plants were compared to untreated controls and visually evaluated for injury. Plant response ratings, summarized in Table A, are based on a 0 to 100 scale where 0 is no effect and 100 is complete control. A dash (-) response means no test result.

ragweed [3] = experiment: Test A preemergence; assay type: in vivo, Ambrosia elatior; settings: 0 to 100 scale (0 no effect, 100 complete control)
Text: as §2, §3

foxtail, giant [4] = experiment: Test A preemergence; assay type: in vivo, Setaria faberii; settings: 0 to 100 scale (0 no effect, 100 complete control)
Text: as §1

pigweed [5] = experiment: Test A preemergence; assay type: in vivo, Amaranthus retroflexus; settings: 0 to 100 scale (0 no effect, 100 complete control)
Text: as §1

ryegrass, Italian [6] = experiment: Test A preemergence; assay type: in vivo, Lolium multiflorum; settings: 0 to 100 scale (0 no effect, 100 complete control)
Text: as §2, §3

barnyardgrass [7] = experiment: Test A postemergence; assay type: in vivo, Echinochloa crus-galli; settings: 0 to 100 scale (0 no effect, 100 complete control), approx. 10 d
Text: as §1

kochia [8] = experiment: Test A postemergence; assay type: in vivo, Kochia scoparia; settings: 0 to 100 scale (0 no effect, 100 complete control), approx. 10 d
Text: as §2, §3

ragweed [9] = experiment: Test A postemergence; assay type: in vivo, Ambrosia elatior; settings: 0 to 100 scale (0 no effect, 100 complete control), approx. 10 d
Text: as §2, §3

foxtail, giant [10] = experiment: Test A postemergence; assay type: in vivo, Setaria faberii; settings: 0 to 100 scale (0 no effect, 100 complete control), approx. 10 d
Text: as §1

pigweed [11] = experiment: Test A postemergence; assay type: in vivo, Amaranthus retroflexus; settings: 0 to 100 scale (0 no effect, 100 complete control), approx. 10 d
Text: as §1

ryegrass, Italian [12] = experiment: Test A postemergence; assay type: in vivo, Lolium multiflorum; settings: 0 to 100 scale (0 no effect, 100 complete control), approx. 10 d
Text: as §2, §3

wheat = experiment: Test A postemergence; assay type: in vivo, Triticum aestivum; settings: 0 to 100 scale (0 no effect, 100 complete control), approx. 10 d
Text: as §1

corn = experiment: Test A postemergence; assay type: in vivo, Zea mays; settings: 0 to 100 scale (0 no effect, 100 complete control), approx. 10 d
Text: as §1

blackgrass = experiment: Test A postemergence; assay type: in vivo, Alopecurus myosuroides; settings: 0 to 100 scale (0 no effect, 100 complete control), approx. 10 d
Text: as §2, §3

galium = experiment: Test A postemergence; assay type: in vivo, Galium aparine; settings: 0 to 100 scale (0 no effect, 100 complete control), approx. 10 d
Text: as §2, §3

Compound | Plant response rating, Barnyardgrass (barnyardgrass [1]; 31 g ai/ha) | Plant response rating, Barnyardgrass (barnyardgrass [1]; 125 g ai/ha) | Plant response rating, Kochia (kochia [2]; 31 g ai/ha) | Plant response rating, Kochia (kochia [2]; 125 g ai/ha) | Plant response rating, Ragweed (ragweed [3]; 31 g ai/ha) | Plant response rating, Ragweed (ragweed [3]; 125 g ai/ha) | Plant response rating, Foxtail, Giant (foxtail, giant [4]; 31 g ai/ha) | Plant response rating, Foxtail, Giant (foxtail, giant [4]; 125 g ai/ha) | Plant response rating, Pigweed (pigweed [5]; 31 g ai/ha) | Plant response rating, Pigweed (pigweed [5]; 125 g ai/ha) | Plant response rating, Ryegrass, Italian (ryegrass, Italian [6]; 31 g ai/ha) | Plant response rating, Ryegrass, Italian (ryegrass, Italian [6]; 125 g ai/ha) | Plant response rating, Barnyardgrass (barnyardgrass [7]; 31 g ai/ha) | Plant response rating, Barnyardgrass (barnyardgrass [7]; 125 g ai/ha) | Plant response rating, Kochia (kochia [8]; 31 g ai/ha) | Plant response rating, Kochia (kochia [8]; 125 g ai/ha) | Plant response rating, Ragweed (ragweed [9]; 31 g ai/ha) | Plant response rating, Ragweed (ragweed [9]; 125 g ai/ha) | Plant response rating, Foxtail, Giant (foxtail, giant [10]; 31 g ai/ha) | Plant response rating, Foxtail, Giant (foxtail, giant [10]; 125 g ai/ha) | further results
COc1nc(-c2ccc(OC(F)(F)F)cc2)nn1Cc1ccnc(C(F)(F)F)c1 [Compound 40] | 0 | 0 | 0 | 0 | 0 | 0 | 0 | 0 | 0 | 30 | 0 | 0 | 0 | 0 | 0 | 0 | 0 | 0 | 0 | 0 | Plant response rating, Pigweed (pigweed [11]; 31 g ai/ha): 30; Plant response rating, Pigweed (pigweed [11]; 125 g ai/ha): 70; Plant response rating, Ryegrass, Italian (ryegrass, Italian [12]; 31 g ai/ha): 0; Plant response rating, Ryegrass, Italian (ryegrass, Italian [12]; 125 g ai/ha): 0; Plant response rating, Wheat (wheat; 31 g ai/ha): 0; Plant response rating, Wheat (wheat; 125 g ai/ha): 0; Plant response rating, Corn (corn; 31 g ai/ha): 0; Plant response rating, Corn (corn; 125 g ai/ha): 20; Plant response rating, Blackgrass (blackgrass; 31 g ai/ha): 0; Plant response rating, Blackgrass (blackgrass; 125 g ai/ha): 0; Plant response rating, Galium (galium; 31 g ai/ha): 20; Plant response rating, Galium (galium; 125 g ai/ha): 30
CCc1nc(-c2ccncc2)nn1Cc1ccnc(C(F)(F)F)c1 [Compound 39] | 0 | 0 | 0 | 0 | 0 | 0 | 0 | 30 | 30 | 90 | 0 | 0 | 0 | 10 | 50 | 70 | 20 | 30 | 10 | 20 | Plant response rating, Pigweed (pigweed [11]; 31 g ai/ha): 60; Plant response rating, Pigweed (pigweed [11]; 125 g ai/ha): 70; Plant response rating, Ryegrass, Italian (ryegrass, Italian [12]; 31 g ai/ha): 0; Plant response rating, Ryegrass, Italian (ryegrass, Italian [12]; 125 g ai/ha): 0; Plant response rating, Wheat (wheat; 31 g ai/ha): 0; Plant response rating, Wheat (wheat; 125 g ai/ha): 0; Plant response rating, Corn (corn; 31 g ai/ha): 0; Plant response rating, Corn (corn; 125 g ai/ha): 20; Plant response rating, Blackgrass (blackgrass; 31 g ai/ha): 0; Plant response rating, Blackgrass (blackgrass; 125 g ai/ha): 0; Plant response rating, Galium (galium; 31 g ai/ha): 40; Plant response rating, Galium (galium; 125 g ai/ha): 60
Cc1nc(-c2ccc(OC(F)(F)F)cc2)nn1Cc1ccnc(C(F)(F)F)c1 [Compound 37] | 0 | 0 | 0 | 0 | 0 | 0 | 0 | 0 | 10 | 20 | 0 | 0 | 0 | 0 | 20 | 70 | 0 | 0 | 0 | 0 | Plant response rating, Pigweed (pigweed [11]; 31 g ai/ha): 20; Plant response rating, Pigweed (pigweed [11]; 125 g ai/ha): 80; Plant response rating, Ryegrass, Italian (ryegrass, Italian [12]; 31 g ai/ha): 0; Plant response rating, Ryegrass, Italian (ryegrass, Italian [12]; 125 g ai/ha): 0; Plant response rating, Wheat (wheat; 31 g ai/ha): 0; Plant response rating, Wheat (wheat; 125 g ai/ha): 0; Plant response rating, Corn (corn; 31 g ai/ha): 10; Plant response rating, Corn (corn; 125 g ai/ha): 20; Plant response rating, Blackgrass (blackgrass; 31 g ai/ha): 0; Plant response rating, Blackgrass (blackgrass; 125 g ai/ha): 20; Plant response rating, Galium (galium; 31 g ai/ha): 0; Plant response rating, Galium (galium; 125 g ai/ha): 20
